Earlier results in patent publication US20040097599A1, “Antibacterial and antifungal compositions based on branched C-11 alcohols” (priority 2001, published 2004).
≈ marks a conversion by molar mass, not a printed value.

Test system: Streptococcus mutans
Conditions: towards Streptococcus mutans; J. Agric. Food Chem. 1993, 41, 2447-2450

Row | MIC (Minimum Inhibitory Concentration) [µg/mL] | SMILES
1 | 6.25 (≈ 33.5 µM) | CCCCCCCCCCCCO [1-dodecanol]
2 | 6.25 (≈ 31.2 µM) | CCCCCCCCCCCCCO [1-tridecanol]
